Measurements as given in patent publication US20140249056A1, “BILAYERS” (ISIS INNOVATION LIMITED, priority 2009, published 2014).

Key:
[1] = biological target: T1, Kv1.3 (K+ channels from lymphocyte membranes) (Homo sapiens, UniProt P22001); experiment: Bulk current block of voltage-gated potassium channels from lymphocyte (SupT1) membranes in droplet bilayer; type: biochemical; conditions: +50 mV
T1 construct: endogenously expressed voltage-gated potassium channels in primary lymphocytes; endogenous in cells; host or cells: SupT1 cells
T1 sequence (P22001 whole entry): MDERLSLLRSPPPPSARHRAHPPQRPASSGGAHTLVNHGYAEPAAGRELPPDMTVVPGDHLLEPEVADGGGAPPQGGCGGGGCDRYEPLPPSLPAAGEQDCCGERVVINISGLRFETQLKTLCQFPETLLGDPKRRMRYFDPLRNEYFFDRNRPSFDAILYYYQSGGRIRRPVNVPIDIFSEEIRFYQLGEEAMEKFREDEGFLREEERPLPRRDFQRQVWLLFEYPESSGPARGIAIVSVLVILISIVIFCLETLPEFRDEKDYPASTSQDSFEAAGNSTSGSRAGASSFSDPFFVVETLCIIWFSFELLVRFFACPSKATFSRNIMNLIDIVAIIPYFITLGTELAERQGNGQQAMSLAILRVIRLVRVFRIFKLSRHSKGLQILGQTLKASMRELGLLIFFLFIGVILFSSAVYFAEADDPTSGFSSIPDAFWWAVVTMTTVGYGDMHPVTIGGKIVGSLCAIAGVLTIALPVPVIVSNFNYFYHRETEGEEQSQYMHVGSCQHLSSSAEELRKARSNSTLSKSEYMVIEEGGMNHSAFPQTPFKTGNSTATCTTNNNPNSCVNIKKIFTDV
Experimental: SupT1 cells were grown as a suspension culture and washed four times in buffer (150 mM KCl, 10 mM Hepes, pH 7.5). Cells were then lysed by hypo-osmotic shock, and membranes isolated by centrifugation and washing in isotonic buffer (140 mM KCl, 10 mM Hepes, pH 7.5). Membranes were diluted 1:10^4 and 1 μL of this solution was deposited on an agarose coated coverslip (1.5%). For bulk current blocking 4-aminopyridine a non-specific K+ channel blocker was used (5 mM, +50 mV). For specific blocking Kaliotoxin, a specific Kv-channel blocker, was used (50 μM, +50 mV).

[2] = biological target: T2, Gardos K+ ion channel (Homo sapiens, UniProt O15554+P0DP23); experiment: Ca2+ dependent K+ flux in red blood cell membranes reconstituted in droplet bilayer; type: biochemical; conditions: 5 mM Ca2+ versus none, 150 mM KCl, pH 7, +50 mV, n=5
T2 construct: red blood cells were isolated from whole blood; from tissue; host or cells: red blood cells from whole blood
Experimental: Following previously published protocol (Gibson et al, J Physiol: 511(Pt1), 225-234 (1998)), red blood cells were isolated from whole blood of Sickle Cell or healthy individuals by centrifugation and washing four times in PBS buffer (137 mM NaCl, 2.7 mM KCl, 10 mM sodium phosphate dibasic, 2 mM potassium phosphate monobasic, pH 7.4, containing 1% glucose), removing remaining blood components by aspiration. Cells were lysed by hypo-osmotic shock in low salt buffer (15 mM NaCl, 10 mM EDTA, 10 mM Hepes, pH 7). Membranes were then sedimented by centrifugation and washed in low salt buffer four times before resuspension into isotonic buffer (150 mM NaCl or KCl or CaCl2, 10 mM Hepes, pH 7.4). For Gardos channel experiments, membranes were resuspended in isotonic buffer containing 150 mM KCl, 10 mM Hepes, pH 7. Droplets with or without Ca^2+ (150 mM KCl, +/−5 mM CaCl2, +/−5 mM KCl, 10 mM Hepes, pH 7, +50 mV, n=5) were used to observe Ca^2+ dependent K^+ flux. […] Further dilution of 1:20 was needed for single channel recordings.

[3] = system: KATP channel (Kir6.2 and SUR1); experiment: Bulk current block of KATP channels from Min6 cell membranes reconstituted in droplet bilayer; type: biochemical; conditions: glibenclamide 1 mM, +50 mV, 140 mM KCl, 10 mM Hepes, pH 7.5, n=5
Experimental: For KATP channels, Kir6.2 and SUR1 (Sulfonylurea receptor) were co-expressed in Min6 cells. Frozen cells were subjected to three freeze-thaw cycles before they were sonicated for 1 minute (4° C., Sonorex, Bandelin, Germany, 320 W). After isolation of membranes by centrifugation, membranes were washed in isotonic buffer (140 mM KCl, 10 mM Hepes, pH 7.5), and diluted 1:5000. Membranes were incorporated into agarose by mixing (1:10 v:v) with cooling agarose (1.5%) and deposited onto the coverslip prior to device assembly. For single channel recordings the sample was diluted a further 10-fold. Electrical recordings were performed in 140 mM KCl, 10 mM Hepes, pH 7.5 in both droplet and agarose support. Bulk current block was obtained using glybenclamide (1 mM, +50 mV, n=5).

[4] = biological target: T3, bacterial potassium channel KcsA (Streptomyces lividans, UniProt P0A334); experiment: Bulk current block of KcsA from E. coli membranes reconstituted in droplet bilayer; type: biochemical; conditions: 150 mM Ba2+ (BaCl2) in droplet, +50 mV, n=5
T3 construct: made in house; host or cells: porin-free E. coli strain PC2889, vector pQE60
T3 sequence (P0A334 1-160): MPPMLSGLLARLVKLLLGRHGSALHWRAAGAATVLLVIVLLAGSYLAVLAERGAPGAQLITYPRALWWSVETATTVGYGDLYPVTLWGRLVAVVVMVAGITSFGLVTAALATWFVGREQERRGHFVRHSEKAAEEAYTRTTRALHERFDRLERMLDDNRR
Experimental: KcsA was overexpressed in pQE60 (Qiagen, Germany) using a porin-free E. coli strain PC2889. Cells were disintegrated using a pressure-based cell homogenizer (TC5-612, Stansted Fluid Power, UK) and membranes isolated by centrifugation in water before freezing in liquid nitrogen. Sedimented membranes were resuspended in 150 mM KCl, 10 mM Hepes, pH 7.5. Membrane preparations were diluted 1:10^6 (for all cases dilutions are reported as volume:volume unless stated otherwise) and 1:10^8 for bulk and single channel recordings, respectively. Bulk and single channel recording was performed in 150 mM KCl, 10 mM Succinic acid, pH 4. Blocking experiments were performed using droplets containing 150 mM BaCl2, 10 mM Hepes, pH 7.5 (+50 mV, n=5).

[5] = biological target: Human NR1-1a/NR2A NMDA receptor (Homo sapiens, UniProt Q05586+Q12879); conditions: glutamate 10 μM and glycine 10 μM added together, +50 mV, bulk current, n=5
Chain of Human NR1-1a/NR2A NMDA receptor (Q12879 23-1464, other chains not shown): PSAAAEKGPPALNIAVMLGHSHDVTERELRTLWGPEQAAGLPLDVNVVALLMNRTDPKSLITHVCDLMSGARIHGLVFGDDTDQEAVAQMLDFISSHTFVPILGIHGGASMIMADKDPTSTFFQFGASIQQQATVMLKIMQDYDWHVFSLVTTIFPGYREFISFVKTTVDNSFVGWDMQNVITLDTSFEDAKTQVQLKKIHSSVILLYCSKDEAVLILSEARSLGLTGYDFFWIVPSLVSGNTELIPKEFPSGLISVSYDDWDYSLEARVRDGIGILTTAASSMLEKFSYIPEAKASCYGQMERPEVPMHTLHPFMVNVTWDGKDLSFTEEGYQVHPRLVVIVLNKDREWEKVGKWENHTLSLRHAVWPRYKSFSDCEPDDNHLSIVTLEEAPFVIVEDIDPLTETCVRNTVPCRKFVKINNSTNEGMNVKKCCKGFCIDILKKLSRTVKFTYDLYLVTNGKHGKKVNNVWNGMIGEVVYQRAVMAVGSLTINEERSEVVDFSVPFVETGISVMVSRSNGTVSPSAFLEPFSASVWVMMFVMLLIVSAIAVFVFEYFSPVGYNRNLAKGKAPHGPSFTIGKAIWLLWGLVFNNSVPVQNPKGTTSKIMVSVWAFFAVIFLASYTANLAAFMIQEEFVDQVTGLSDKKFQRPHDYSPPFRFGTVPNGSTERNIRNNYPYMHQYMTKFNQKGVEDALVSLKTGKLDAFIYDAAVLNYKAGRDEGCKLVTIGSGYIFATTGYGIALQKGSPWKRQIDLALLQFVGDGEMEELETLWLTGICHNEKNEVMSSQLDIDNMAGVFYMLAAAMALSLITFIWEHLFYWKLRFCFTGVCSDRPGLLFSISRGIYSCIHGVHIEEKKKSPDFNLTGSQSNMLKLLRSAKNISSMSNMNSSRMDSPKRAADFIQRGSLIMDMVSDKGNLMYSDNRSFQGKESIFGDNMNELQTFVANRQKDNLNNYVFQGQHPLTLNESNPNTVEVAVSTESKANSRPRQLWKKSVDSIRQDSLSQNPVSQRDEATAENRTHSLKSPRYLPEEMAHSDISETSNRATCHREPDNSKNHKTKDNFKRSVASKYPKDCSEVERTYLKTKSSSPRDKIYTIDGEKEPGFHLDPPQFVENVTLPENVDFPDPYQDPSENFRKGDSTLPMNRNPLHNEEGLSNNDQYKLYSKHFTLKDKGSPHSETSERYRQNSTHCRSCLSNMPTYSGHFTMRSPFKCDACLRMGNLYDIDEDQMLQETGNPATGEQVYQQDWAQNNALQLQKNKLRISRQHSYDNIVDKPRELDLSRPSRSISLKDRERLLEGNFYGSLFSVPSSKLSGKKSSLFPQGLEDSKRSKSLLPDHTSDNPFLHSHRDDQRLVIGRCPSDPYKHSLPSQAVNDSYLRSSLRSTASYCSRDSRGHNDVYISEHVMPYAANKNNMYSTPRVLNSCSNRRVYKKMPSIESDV
Experimental: Human NR1-1a/NR2A receptor subunits were expressed in a adherent mouse fibroblast 3T3 cell line. After mechanically detaching cells from culture flasks, cells were washed in isotonic buffer (3 times with 140 mM NaCl, 10 mM Hepes, pH 7.5), Cells were then mechanically disrupted by 30 s of ultrasound (Sonorex, Bandelin, Germany, 320 W) and four freeze-thaw cycles. After isolating the membranes by centrifugation and washing in the above buffer, the sample was diluted into the same buffer (1:10^3). […] Upon further dilution of the membrane preparation (1:100) single channels could be recorded (+50 mV applied voltage).

Kaliotoxin: a specific Kv-channel blocker
block of bulk current (ion flux reduced) ([1]; 50 μM Kaliotoxin): 99%
block of bulk current (ion flux reduced) ([1]; 50 μM Kaliotoxin, listed as KTX): 99.4%

Nc1ccncc1 [4-aminopyridine]
block of bulk current (ion flux reduced) ([1]; 5 mM 4-aminopyridine): 96%

[Ca+2].[Cl-].[Cl-] [Ca^2+, CaCl2]
increase of Ca2+ induced K+ flux [2]: seven

COc1ccc(Cl)cc1C(=O)NCCc1ccc(S(=O)(=O)NC(=O)NC2CCCCC2)cc1 [glibenclamide]
bulk currents blocked [3]: 91%

[Ba+2].[Cl-].[Cl-] [Ba^2+, BaCl2]
block in current [4]: 93%

NCC(=O)O [glycine]
increase in ionic flux [5]: 98%
